Assay results as given in patent publication US20240067651A1 (Biohaven Therapeutics Ltd., priority 2019, published 2024).
Read-outs that look alike come from different tables or passages of the source.

Assays:
Caco-2 monolayer = experiment: Caco-2 Permeability Assay; assay type: in vitro ADME, human
Outline: (§1)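 Caco-2 monolayers cultured 21 days (TEER >600 […]); test article at 10 μM in HBSS/HEPES pH 7.4 transport medium, dosed apical or basolateral, ±Pgp inhibitor. Incubated 90 min at 37 °C; both compartments quantified by LC-MS/MS. Papp (A→B, B→A), efflux ratio and % recovery calculated.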

[1] = Stability in Simulated Gastric Fluid (SGF); assay type: in vitro ADME; parameters: key: % parent compound remaining relative to 0-minute sample
Outline: (§2)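 Compound at 2 μg/mL final was incubated at 37° C with orbital shaking in SGF containing pepsin (pH 1.2) or SIF containing pancreatin (pH 6.8), sampled from 0 to 60 minutes. Parent remaining was measured by LC-MS/MS relative to the 0-minute sample; half-life came from ln(% remaining) versus time when enough points existed.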

[2] = Stability in Simulated Intestinal Fluid (SIF); assay type: in vitro ADME; parameters: key: % parent compound remaining relative to 0-minute sample
Outline: as §2

Plasma Stability = assay type: in vitro ADME, human
Outline: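 Compounds incubated at 1 μM in fresh human plasma for 1 hour at 37° C, then protein-precipitated with acetonitrile/formic acid containing internal standard. Remaining parent measured by LC-MS/MS in triplicate, expressed as percent of control remaining.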

[3] = Caco-2 Permeability Assay; assay type: in vitro ADME, human; conditions: human
Outline: as §1

[4] = simulated gastric fluid, remaining at 1 h
[5] = simulated intestinal fluid, remaining at 1 h
[6] = % remaining at 1 h in simulated gastric fluid
[7] = % remaining at 1 h in simulated intestinal fluid
[8] = % remaining at 1 h in human plasma
[9] = % remaining after 1 h in simulated gastric fluid
[10] = % remaining after 1 h in simulated intestinal fluid
[11] = % remaining after 1 h in human plasma
[12] = % remaining at 1 h in simulated gastric fluid, the 15th table
[13] = % remaining at 1 h in simulated intestinal fluid, the 15th table
[14] = % remaining at 1 h in human plasma, the 15th table
[15] = % @ 1 h (remaining) in simulated gastric fluid
[16] = % @ 1 h (remaining) in simulated intestinal fluid
[17] = % @ 1 h (remaining) in human plasma
[18] = Caco-2, pH 7.4, donor 10 μM, 90 minutes, 37° C., direction not given
[19] = % remaining at 1 h, SGF with pepsin pH 1.2, 2 μg/mL, 37° C.
[20] = % remaining at 1 h, SIF with pancreatin pH 6.8, 2 μg/mL, 37° C.
[21] = % remaining at 1 h, human plasma, 1 μM, 37° C.
[22] = Caco-2, pH 7.4, Caco-2 monolayer
[23] = Caco-2, pH 7.4, Caco-2 monolayer, the 17th table
[24] = % remaining at 1 h in simulated gastric fluid, the 17th table
[25] = % remaining at 1 h in simulated intestinal fluid, the 17th table
[26] = % remaining at 1 h in human plasma, the 17th table

## (2R)-2-amino-4-methyl-N-[2-(2-{[{{4-oxo-1-[2-(propan-2-yloxy)ethyl]-2-sulfanylidene-1H,2H,3H,4H,5H-pyrrolo[3,2-d]pyrimidin-5-yl}methoxy)carbonyl]oxy}ethoxy)eth-yl]pentanamide; trifluoroacetic acid [Example 386]
Caco-2 monolayer; Caco-2 monolayer
  Caco-2 Papp: 0.077 ×10⁻⁶ cm/s
[1]; [4]
  SGF: 93% remaining
[2]; [5]
  SIF: 86% remaining
Plasma Stability; human plasma, remaining at 1 h
  human Plasma stability: 23% remaining

## CC(C)OCCn1c(=S)[nH]c(=O)c2c1ccn2COC(=O)CCCCNC(=O)[C@@H]1CCCN1C(N)=O.O=C(O)C(F)(F)F [Example 69, trifluoroacetic acid {4-oxo-1-[2-(propan-2-yloxy)ethyl]-2-sulfanylidene-1H,2H,3H,4H,5H-pyrrolo[3,2-d]pyrimidin-5-yl}methyl 5-{[(2S)-1-carbamoylpyrrolidin-2-yl]formamido}pentanoate Caco-2 Papp]
Caco-2 monolayer; Caco-2 monolayer
  Caco-2 Papp: 0.217 ×10⁻⁶ cm/s
[1]; [6]
  SGF: 84% remaining
[2]; [7]
  SIF: 94% remaining
Plasma Stability; [8]
  human Plasma stability: 7% remaining

## 5-{({2-[2-(carbamoyloxy)ethoxy]ethoxy}car-bonyl)oxy]methyl}-1-[2-(propan-2-yloxy)ethyl]-2-sulfanylidene-1H,2H,3H,4H,5H-pyrrolo[3,2-d]pyrimidin-4-one [Example 402]
Caco-2 monolayer; Caco-2 monolayer
  Caco-2 Papp: 24.6 ×10⁻⁶ cm/s
[1]; [9]
  SGF: 99% remaining
[2]; [10]
  SIF: 89% remaining
Plasma Stability; [11]
  human Plasma stability: 99% remaining

## {4-oxo-1-[2-(propan-2-yloxy)ethyl]-2-sulfanylidene-1H,2H,3H,4H,5H-pyrrolo[3,2-d]pyrimidin-5-yl}methyl 2-{[(tert-butoxy)carbonyl](methyl)amino}acetate [Example 395]
Caco-2 monolayer; Caco-2 monolayer
  Caco-2 Papp: 14.4 ×10⁻⁶ cm/s
[1]; [9]
  SGF: 97% remaining
[2]; [10]
  SIF: 23% remaining
Plasma Stability; [11]
  human Plasma stability: 1% remaining

## CC(C)OCCn1c(=S)[nH]c(=O)c2c1ccn2CO [Example 197]
Caco-2 monolayer; Caco-2 monolayer, the 15th table
  Caco-2 Papp (nm/s): unstable
[1]; [12]
  SGF: 98% remaining
[2]; [13]
  SIF: 55% remaining
Plasma Stability; [14]
  human Plasma stability: 86% remaining

## CCN(C)C(=O)OCSc1nc(=O)c2c(ccn2COC(=O)N(C)CC)n1CCOC(C)C.O=C(O)C(F)(F)F [Example 169, trifluoroacetic acid {2-[{{[ethyl(methyl)carba-moyl]oxy}methyl)sulfanyl]-4-oxo-1-[2-(propan-2-yloxy)ethyl]-1H,4H,5H-pyrrolo[3,2-d]pyrimidin-5-yl}methyl N-ethyl-N-methylcarbamate]
Caco-2 monolayer; Caco-2 monolayer
  Caco-2 Papp: 10.9 ×10⁻⁶ cm/s
[1]; [15]
  SGF: 99% @ 1 h
[2]; [16]
  SIF: 81% @ 1 h
Plasma Stability; [17]
  human Plasma stability: 89% @ 1 h

## CC(C)OCCn1c(=S)n(COC(=O)CCCOC(=O)[C@H](NC(=O)OC(C)(C)C)C(C)C)c(=O)c2c1ccn2COC(=O)CCCOC(=O)[C@H](NC(=O)OC(C)(C)C)C(C)C [Example 359, (((1-(2-isopropoxyethyl)-4-oxo-2-thioxo-1,4-dihydro-3H-pyrrolo[3,2-d]pyrimidine-3,5(2H)-diyl)bis(methylene))bis(oxy))bis(4-oxobutane-4,1-diyl) (2R,2′R)-bis(2-((tert-butoxycarbonyl)amino)-3-methylbutanoate)]
Caco-2 monolayer; Caco-2 monolayer
  Caco-2 Papp: <0.297 ×10⁻⁶ cm/s
[1]; [4]
  SGF: 99% remaining
[2]; [5]
  SIF: 41% remaining
Plasma Stability; human plasma, remaining at 1 h
  human Plasma stability: 8% remaining

## CC(C)OCCn1c(=S)n(COC(=O)[C@H](C)N)c(=O)c2c1ccn2CO.O=C(O)C(F)(F)F [Example 290, trifluoroacetic acid [5-(hydroxymethyl)-4-oxo-1-[2-(propan-2-yloxy)ethyl]-2-sulfanylidene-1H,2H,3H,4H,5H-pyrrolo[3,2-d]pyrimidin-3-yl]methyl (2S)-2-aminopropanoate]
Caco-2 monolayer
  Caco-2 Papp (nm/s): unstable
[1]; % remaining @ 1 h
  SGF: 98% @ 1 h
[2]; % remaining @ 1 h
  SIF: 10% @ 1 h

## CC(C)OCCn1c(=S)n(COC(=O)C(C)(C)C)c(=O)c2c1ccn2COC(=O)C(C)(C)C [Example 143, 2,2-Dimethyl-propionic acid 5-(2,2-dimethyl-propionyloxymethyl)-1-(2-isopropoxy-ethyl)-4-oxo-2-thioxo-1,2,4,5-tetrahydro-pyrrolo[3,2-d]pyrimidin-3-ylmethyl ester]
[3]; [18]
  Papp at 90 min, 10 µM: 3 ×10⁻⁶ cm/s
[1]; [19]
  SGF: 62%
[2]; [20]
  SIF: 82%
Plasma Stability; [21]
  human Plasma stability: 21%

## COc1ccc(N(C)C(=O)OCSc2nc(=O)c3[nH]ccc3n2CCOC(C)C)cc1 [Example 241]
[3]; [22]
  Papp at 90 min, 10 µM: 10.5 ×10⁻⁶ cm/s
[1]; simulated gastric fluid, at 1 h
  SGF: 57% remaining
[2]; simulated intestinal fluid, at 1 h
  SIF: 97% remaining
Plasma Stability; human plasma, at 1 h
  human Plasma stability: 100% remaining

## CC(C)OCCn1c(=S)[nH]c(=O)c2c1ccn2COC(=O)CCCCNC(=O)C1CCCN1C(=O)OC(C)C.O=C(O)C(F)(F)F (centres unmarked) [Example 67]
[3]; [22]
  Papp at 90 min, 10 µM: 2.84 ×10⁻⁶ cm/s
[1]; [6]
  SGF: 92% remaining
[2]; [7]
  SIF: 93% remaining
Plasma Stability; [8]
  human Plasma stability: 57% remaining

## CC(C)OCCn1c(=S)[nH]c(=O)c2c1ccn2COCC[Si](C)(C)C [Example 72, 1-[2-(propan-2-yloxy)ethyl]-2-sulfanylidene-5-{[2-(trimethylsilyl)ethoxy]methyl}-1H,2H,3H,4H,5H-pyrrolo[3,2-d]pyrimidin-4-one]
[3]; [18]
  Papp at 90 min, 10 µM: 26.4 ×10⁻⁶ cm/s
[1]; [19]
  SGF: 97%
[2]; [20]
  SIF: 98%
Plasma Stability; [21]
  human Plasma stability: 78%

## CC(C)C[C@@H](N)C(=O)OCCCCC(=O)OCn1ccc2c1c(=O)[nH]c(=S)n2CCOC(C)C.O=C(O)C(F)(F)F [Example 350, trifluoroacetic acid 5-oxo-5-({4-oxo-1-[2-(propan-2-yloxy)ethyl]-2-sulfanylidene-1H, 2H,3H,4H,5H-pyrrolo[3,2-d]pyrimidin-5-yl}methoxy)pentyl (2R)-2-amino-4-methylpentanoate]
[3]; [22]
  Papp at 90 min, 10 µM: 0.0782 ×10⁻⁶ cm/s
[1]; [4]
  SGF: 29% remaining
[2]; [5]
  SIF: 52% remaining
Plasma Stability; human plasma, remaining at 1 h
  human Plasma stability: 44% remaining

## CC(C)CNC(=O)OCSc1nc(=O)c2c(ccn2C(=O)NCC(C)C)n1CCOC(C)C [Example 187]
[3]; Caco-2, pH 7.4, Caco-2 monolayer, the 15th table
  Papp at 90 min, 10 µM: 33.1 ×10⁻⁶ cm/s
[1]; [12]
  SGF: 97% @ 1 h
[2]; [13]
  SIF: 97% @ 1 h
Plasma Stability; [14]
  human Plasma stability: 96% @ 1 h

## CCCCCCOC(=O)OCn1ccc2c1c(=O)nc(S)n2CCOC(C)C [Example 213]
[3]; [23]
  Papp at 90 min, 10 µM: 3.03 ×10⁻⁶ cm/s
[1]; [24]
  SGF: 76% remaining
[2]; [25]
  SIF: 1% remaining
Plasma Stability; [26]
  human Plasma stability: 44% remaining

## CC(=O)OCc1ccccc1N(C)C(=O)OC(C)n1ccc2c1c(=O)nc(S)n2CCOC(C)C (centres unmarked) [Example 221]
[3]; [23]
  Papp at 90 min, 10 µM: 2.54 ×10⁻⁶ cm/s
[1]; [24]
  SGF: 67% remaining
[2]; [25]
  SIF: 68% remaining
Plasma Stability; [26]
  human Plasma stability: 94% remaining

## CC(C)CN(C)C(=O)OCSc1nc(=O)c2[nH]ccc2n1CCOC(C)C [Example 172]
[3]; [22]
  Papp at 90 min, 10 µM: 23.7 ×10⁻⁶ cm/s
[1]; [15]
  SGF: 100% @ 1 h
[2]; [16]
  SIF: 95% @ 1 h
Plasma Stability; [17]
  human Plasma stability: 98% @ 1 h

## CC(C)OCCn1c(=S)[nH]c(=O)c2c1ccn2COC(=O)C[C@H](NC(=O)CCCCCCCCCCC(=O)O)C(=O)O [Example 142, 11-{[(1S)-1-carboxy-3-oxo-3-({4-oxo-1-[2-(propan-2-yloxy)ethyl]-2-sulfanylidene-1H,2H,3H,4H,5H-pyrrolo[3,2-d]pyrimidin-5-yl}methoxy)propyl]carbamoyl}undecanoic acid]
[3]; [18]
  Papp at 90 min, 10 µM: < 0.19 ×10⁻⁶ cm/s
[1]; [19]
  SGF: 100% remaining
[2]; [20]
  SIF: 97% remaining
Plasma Stability; [21]
  human Plasma stability: 97% remaining
